This note sets out measurements from patent publication US20040220148A1, “5-Membered ring heterocycles as inhibitors of leucocyte adhesion and as VLA-4 antagonists” (Aventis Pharma Deutschland GmbH, priority 1996, published 2004).

Where a name gives a salt, the structure may show the parent alone.

The target in this test is T1, VLA-4 integrins on human U937 cells (interaction between VCAM-1 and VLA-4) (Homo sapiens, UniProt P05556+P13612).
T1 construct: the VLA-4 integrins, are offered in their natural form as surface molecules on human U937 cells; host or cells: U937 cells (VLA-4, endogenous); the partner hVCAM-1(1-3)-IgG came from the supernatant of transfected COS cells (ATCC CRL1651)
Put plainly: U937/VCAM-1 cell adhesion test (adhesion of U937 cells to hVCAM-1(1-3)-IgG). It counts as cell-based. To be noted: concentration leading to 50% inhibition of adhesion. An excerpt: As a test method for the activity of the compounds of the formula I on the interaction between VCAM-1 and VLA-4, an assay which is specific for this interaction is used. The cellular binding components, i.e. the VLA-4 integrins, are offered in their natural form as surface molecules on human U937 cells (ATCC CRL 1593) which belong to the group of leucocytes. As specific binding components, recombinant soluble fusion proteins prepared by genetic engineering and consisting of the extracytoplasmic domains of human VCAM-1 and the constant region of a human immunoglobulin of the subclass IgG1 are used.
Assay for the Measurement of the Adhesion of U937 Cells (ATCC CRL 1593) to hVCAM-1 (1-3)-IgG
1. Preparation of Human VCAM-1(1-3)-IgG and Human CD4-IgG
A genetic construct for the expression of the extracellular domains of human VCAM-1 was employed, associated with the genetic sequence of the heavy chain of human immunoglobulin IgG1 (hinge, CH2 and CH3 regions), from Dr. Brian Seed, Massachusetts General Hospital, Boston, USA. The soluble fusion protein hVCAM-1(1-3)-IgG contained the three amino-terminal extracellular immunoglobulin-like domains of human VCAM-1 (Damle and Aruffo, Proc. Natl. Acad. Sci. USA 1991, 88, 6403). CD4-IgG (Zettlmeissl et al, DNA and Cell Biology 1990, 9, 347) served as a fusion protein for negative controls. The recombinant proteins were expressed as soluble proteins after DEAE/dextran-mediated DNA-transfection in COS cells (ATCC CRL1651) according to standard procedures (Ausubel et al., Current protocols in molecular biology, John Wiley & Sons, Inc., 1994).
2. Assay for Measurement of the Adhesion of U937 Cells to hVCAM-1(1-3)-IgG
2.1 96-well microtiter test plates (Nunc Maxisorb) were incubated at room temperature for 1 hour with 100 μl/well of a goat-anti-human IgG antibody solution (10 μg/ml in 50 mM tris, pH 9.5). After removing the antibody solution, washing was carried out once with PBS.
2.2 150 μl/well of a blocking buffer (1% BSA in PBS) were incubated on the plates at room temperature for 0.5 hours. After removing the blocking buffer, washing was carried out once with PBS.
2.3 100 μl per well of a cell culture supernatant of transfected COS cells were incubated on the plates at room temperature for 1.5 hours. The COS cells were transfected with a plasmid which codes for the three N-terminal immunoglobulin-like domains of VCAM-1, coupled to the Fc part of human IgG1 (hVCAM-1(1-3)-IgG). The content of hVCAM-1 (1-3)-IgG was about […]. After removing the culture supernatant, washing was carried out once with PBS.
2.4 The plates were incubated at room temperature for 20 minutes with […] of Fc receptor blocking buffer (1 mg/ml of γ-globulin, 100 mM NaCl, 100 μM MgCl2, 100 μM MnCl2, 100 μM CaCl2, 1 mg/ml BSA in 50 mM HEPES, pH 7.5). After removing the Fc receptor blocking buffer, washing was carried out once with PBS.
2.5 20 μl of binding buffer (100 mM NaCl, 100 μM MgCl2, 100 μM MgCl2, 100 μM CaCl2, 1 mg/ml BSA in 50 mM HEPES, pH 7.5), were initially introduced, the substances to be tested were added in 10 μl of binding buffer and the mixture was incubated for 20 minutes. As controls, antibodies against VCAM-1 (BBT, No. BBA6) and against VLA-4
(Immunotech, No. 0764) were used.
2.6 U937 cells were incubated in Fc receptor blocking buffer for 20 minutes and then pipetted in at a concentration of 1×10^6/ml and in an amount of 100 μl per well ([…]).
2.7 The plates were slowly immersed at an angle of 45° in stop buffer (100 mM NaCl, 100 μM MgCl2, 100 μM MnCl2, 100 μM CaCl2 in 25 mM Tris, pH 7.5) and shaken off. The process was repeated.
2.8 50 μl/well of a dye solution (16.7 μg/ml of Hoechst dye 33258, 4% formaldehyde, 0.5% Triton X-100 in PBS) were then incubated on the plates for 15 minutes.
2.9 The plates were shaken off and slowly immersed at an angle of 45° in stop buffer (100 mM NaCl, 100 μM MgCl2, 100 μM MnCl2, 100 μM CaCl2 in 25 mM Tris, pH 7.5). The process was repeated. […]

T1 sequence (P13612 34-1032): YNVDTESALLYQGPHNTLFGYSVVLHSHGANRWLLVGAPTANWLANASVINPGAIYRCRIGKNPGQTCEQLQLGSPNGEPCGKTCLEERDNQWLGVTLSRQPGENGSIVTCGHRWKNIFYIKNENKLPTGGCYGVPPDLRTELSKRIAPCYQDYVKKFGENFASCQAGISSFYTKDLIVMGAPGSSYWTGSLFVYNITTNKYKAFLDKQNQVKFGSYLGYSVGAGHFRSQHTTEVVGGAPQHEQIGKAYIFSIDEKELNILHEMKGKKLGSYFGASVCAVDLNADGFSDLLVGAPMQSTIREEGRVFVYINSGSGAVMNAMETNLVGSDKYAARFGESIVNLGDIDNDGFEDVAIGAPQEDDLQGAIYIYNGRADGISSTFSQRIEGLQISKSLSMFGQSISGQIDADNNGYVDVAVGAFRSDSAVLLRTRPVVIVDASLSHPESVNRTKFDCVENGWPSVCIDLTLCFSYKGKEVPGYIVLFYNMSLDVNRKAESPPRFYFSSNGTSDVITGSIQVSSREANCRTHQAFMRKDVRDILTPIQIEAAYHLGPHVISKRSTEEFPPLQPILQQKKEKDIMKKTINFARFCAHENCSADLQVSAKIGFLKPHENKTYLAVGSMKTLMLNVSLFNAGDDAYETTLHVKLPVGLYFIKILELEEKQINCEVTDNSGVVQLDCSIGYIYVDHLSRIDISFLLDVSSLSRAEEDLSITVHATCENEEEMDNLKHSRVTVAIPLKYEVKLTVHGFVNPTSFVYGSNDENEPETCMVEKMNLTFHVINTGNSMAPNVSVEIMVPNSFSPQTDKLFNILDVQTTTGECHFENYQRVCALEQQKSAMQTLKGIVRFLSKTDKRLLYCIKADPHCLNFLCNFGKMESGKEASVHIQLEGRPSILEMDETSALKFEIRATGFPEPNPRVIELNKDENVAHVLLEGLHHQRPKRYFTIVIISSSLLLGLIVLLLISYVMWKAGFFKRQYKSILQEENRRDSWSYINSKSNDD
T1 sequence (P05556 21-798): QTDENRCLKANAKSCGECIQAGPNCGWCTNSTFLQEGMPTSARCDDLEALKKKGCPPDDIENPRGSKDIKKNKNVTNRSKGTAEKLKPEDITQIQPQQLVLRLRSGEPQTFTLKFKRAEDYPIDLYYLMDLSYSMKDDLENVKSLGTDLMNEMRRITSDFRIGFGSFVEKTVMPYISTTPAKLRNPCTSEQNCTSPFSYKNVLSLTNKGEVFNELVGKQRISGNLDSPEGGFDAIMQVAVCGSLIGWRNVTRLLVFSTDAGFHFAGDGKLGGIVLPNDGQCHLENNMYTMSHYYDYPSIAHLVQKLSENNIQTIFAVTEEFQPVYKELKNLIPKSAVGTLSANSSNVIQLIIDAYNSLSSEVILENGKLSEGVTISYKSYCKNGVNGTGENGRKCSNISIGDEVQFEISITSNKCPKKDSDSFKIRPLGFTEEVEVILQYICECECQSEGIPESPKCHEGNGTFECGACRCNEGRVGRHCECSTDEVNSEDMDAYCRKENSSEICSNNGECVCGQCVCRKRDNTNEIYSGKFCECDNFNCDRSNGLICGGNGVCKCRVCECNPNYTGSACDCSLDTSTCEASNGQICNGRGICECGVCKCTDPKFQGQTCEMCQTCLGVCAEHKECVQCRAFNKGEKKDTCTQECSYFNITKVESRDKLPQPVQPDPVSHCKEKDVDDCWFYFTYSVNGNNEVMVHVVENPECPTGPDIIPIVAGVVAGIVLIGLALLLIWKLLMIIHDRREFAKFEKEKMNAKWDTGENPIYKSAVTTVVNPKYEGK

Take `CC1(c2ccc(C(=N)N)cc2)C(=O)N(CC(=O)N[C@@H](CC(=O)O)C(=O)N[C@H](C(=O)O)c2ccccc2)C(=O)N1Cc1cccc2ccccc12` (mixture of isomers) [Example 13, ((R,S)-4-(4-(Amino-imino-methyl)phenyl)-3-((1-naphthyl)methyl)-4-methyl-2,5-dioxoimidazolidin-1-yl)acetyl-L-aspartyl-L-phenylglycine]: the half-inhibitory concentration (IC50) worked out at 3.7 µM.

`CC1(c2ccc(N)cc2)C(=O)N(CC(=O)N[C@@H](CC(=O)O)C(=O)N[C@H](C(=O)O)c2ccccc2)C(=O)N1Cc1ccccc1` (stereo partly drawn) [Example 70, ((R,S)-4-(4-Aminophenyl)-3-benzyl-4-methyl-2,5-dioxoimidazolidin-1-yl)acetyl-L-aspartyl-L-phenylglycine] displayed an IC50 of 3 µM.

The molecule `CC1(c2ccc(C(=N)N)cc2)C(=O)N(CC(=O)NCCC(=O)O)C(=O)N1Cc1ccccc1` (racemic) [Example 34, 3-(((R,S)-4-(4-(Amino-imino-methyl)phenyl)-3-benzyl-4-methyl-2,5-dioxoimidazolidin-1-yl)acetylamino)propionic acid hydrochloride] had an IC50 of 175 µM.

Consider `CC1(c2ccc(C(=N)N)cc2)NC(=O)N(CC(=O)N[C@@H](CC(=O)O)C(=O)N[C@H](C(=O)O)c2ccccc2)C1=O` (stereo partly drawn) [Example 1, ((R,S)-4-(4-(Amino-imino-methyl)phenyl)-4-methyl-2,5-dioxoimidazolidin-1-yl)acetyl-L-aspartyl-L-phenylglycine], for which the IC50 was determined as 140 µM.

With `CC1(Cc2ccc(NC(=N)N)cc2)C(=O)N(CC(=O)N[C@@H](CC(=O)O)C(=O)N[C@H](C(=O)O)c2ccccc2)C(=O)N1Cc1ccccc1` (stereo partly drawn) [Example 73, ((R,S)-4-(4-Guanidinobenzyl)-3-benzyl-4-methyl-2,5-dioxoimidazolidin-1-yl)acetyl-L-aspartyl-L-phenylglycine], half-maximal inhibition (IC50) required 125 µM.

The molecule `CC(C)(C)c1ccc(CN2C(=O)N(CC(=O)N[C@@H](CC(=O)O)C(=O)N[C@H](C(=O)O)c3ccccc3)C(=O)C2(C)c2ccc(C(=N)N)cc2)cc1` (mixture of isomers) [Example 5, ((R,S)-4-(4-(Amino-imino-methyl)phenyl)-3-(4-tert-butyl-benzyl)-4-methyl-2,5-dioxoimidazolidin-1-yl)acetyl-L-aspartyl-L-phenylglycine] came in with an IC50 of 15 µM.

On to `CC1(c2ccc(NC(=N)N)cc2)C(=O)N(CC(=O)N[C@@H](CC(=O)O)C(=O)N[C@H](C(=O)O)c2ccccc2)C(=O)N1Cc1ccccc1` (stereo partly drawn) [Example 71, ((R,S)-4-(4-Guanidinophenyl)-3-benzyl-4-methyl-2,5-dioxoimidazolidin-1-yl)acetyl-Laspartyl-L-phenylglycine], for which the IC50 worked out at 3.25 µM.

Regarding “((S)-4-(3-Guarndinopropyl)-3-benzyl-2,5-dioxoimidazolidin-1-yl)acetyl-D-aspartyl-L-phenylglycine-L-tyrosine hydrochloride [Example 39]”, the IC50 was 8 µM.

`CCN1C(=O)N(CC(=O)N[C@@H](CC(=O)O)C(=O)N[C@@H](C(=O)O)c2ccccc2)C(=O)[C@@H]1CCCNC(=N)N` [Example 36, ((S)-4-(3-Guanidinopropyl)-3-ethyl-2,5-dioxoimidazolidin-1-yl)acetyl-L-aspartyl-D-phenylglycine] registered an IC50 of 250 µM.

On to `CC1(c2ccc(C(=N)N)cc2)C(=O)N(CC(=O)N[C@@H](CC(=O)O)C(=O)N[C@H](C(=O)O)c2ccccc2)C(=O)N1Cc1c(F)c(F)c(F)c(F)c1F` (mixture of isomers) [Example 6, ((R,S)-4-(4-(Amino-imino-methyl)phenyl)-3-(2,3,4,5,6-pentafluorobenzyl)-4-methyl-2,5-dioxoimidazolidin-1-yl)acetyl-L-aspartyl-L-phenylglycine], for which half-maximal inhibition (IC50) was put at 65 µM.

In the case of `CC1(c2ccc(C(=N)N)cc2)C(=O)N(CC(=O)NC[C@H](NC(=O)OCc2ccccc2)C(=O)O)C(=O)N1Cc1ccccc1` (stereo partly drawn) [Example 46, (S)-3-(((R,S)-4-(4-(Amino-imino-methyl)phenyl)-3-benzyl-4-methyl-2,5-dioxoimidazolidin-1-yl)acetylamino)-2-benzyloxycarbonylaminopropionic acid], the IC50 was 6.8 µM.

Molecule `CN1C(=O)N(CC(=O)N[C@@H](CC(=O)O)C(=O)N[C@H](C(=O)O)c2ccccc2)C(=O)C1(C)c1ccc(C(=N)N)cc1` (stereo partly drawn) [Example 2, ((R,S)-4-(4-(Amino-imino-methyl)phenyl)-3,4-dimethyl-2,5-dioxo-imidazolidin-1-yl)acetyl-L-aspartyl-L-phenylglycine] registered a half-inhibitory concentration (IC50) of 15 µM.

As for `COc1cc(OC)cc(C(CC(=O)O)NC(=O)CN2C(=O)N(Cc3ccccc3)C(C)(c3ccc(C(=N)N)cc3)C2=O)c1` [Example 59, (R,S)-3-(((R,S)-4-(4-(Amino-imino-methyl)phenyl)-3-benzyl-4-methyl-2,5-dioxoimidazolidin-1-yl)acetylamino)-3-(3,5-dimethoxyphenyl)propionic acid], half-maximal inhibition (IC50) was put at 27.5 µM.

In turn, `CC1(c2ccc(C(=N)N)cc2)C(=O)N(CC(=O)N[C@@H](CC(=O)O)C(=O)N[C@H](C(=O)O)c2ccccc2)C(=O)N1Cc1ccc(-c2ccccc2)cc1` (mixture of isomers) [Example 14, ((R,S)-4-(4-(Amino-imino-methyl)phenyl)-3-((4-biphenylyl)methyl)-4-methyl-2,5-dioxoimidazolidin-1-yl)acetyl-L-aspartyl-L-phenylglycine] returned an IC50 of 0.25 µM.

The molecule `CCN1C(=O)N(CC(=O)N[C@@H](CC(=O)O)C(=O)N[C@H](C(=O)O)c2ccccc2)C(=O)[C@@H]1CCCN` [Example 35, ((S)-4-(3-Aminopropyl)-3-ethyl-2,5-dioxoimidazolidin-1-yl)acetyl-L-aspartyl-L-phenylglycine] came in with an IC50 of 250 µM.

`CC1(c2ccc(C(=N)N)cc2)C(=O)N(CC(=O)NC[C@H](NC(=O)OCc2ccc(C(F)(F)F)cc2)C(=O)O)C(=O)N1Cc1ccccc1` (stereo partly shown) [Example 67] gave an IC50 of 2.25 µM.

Turning to `CC1(c2ccc(CNC(=N)N)cc2)C(=O)N(CC(=O)N[C@@H](CC(=O)O)C(=O)N[C@H](C(=O)O)c2ccccc2)C(=O)N1Cc1ccccc1` (stereo partly drawn) [Example 69, ((R,S)-4-(4-Guanidinomethylphenyl)-3-benzyl-4-methyl-2,5-dioxo-imidazolidin-1-yl)acetyl-L-aspartyl-L-phenylglycine], the IC50 is 4.5 µM.

`CC1(c2ccc(C(=N)N)cc2)C(=O)N(CC(=O)N[C@@H](CC(=O)O)C(=O)N[C@H](C(=O)O)c2ccccc2)C(=O)N1Cc1ccccc1CS(=O)(=O)c1ccccc1` (mixture of isomers) [Example 10] yielded an IC50 of 47 µM.

As for `COC(=O)[C@@H](NC(=O)[C@H](CC(=O)O)NC(=O)CN1C(=O)N(Cc2ccccc2)C(C)(c2ccc(C(=N)N)cc2)C1=O)c1ccccc1` (mixture of isomers) [Example 25, ((R,S)-4-(4-(Amino-imino-methyl)phenyl)-3-benzyl-4-methyl-2,5-dioxo-imidazolidin-1-yl)acetyl-L-aspartyl-L-phenylglycine methyl ester], half-maximal inhibition (IC50) was put at 22 µM.

For orientation: IC50 means the concentration needed to halve the response being measured. Read a low IC50 as higher potency.
